According to paper PMC3914206:

Key:
Type in all cases: binding
Conditions in all cases: Compound Concentration 10 µM
[1] = target: T1, panel of 442 kinases (Homo sapiens, UniProt P07949)
T1 construct: purchased KINOMEscan
Text: (§1) We assessed the selectivity of members of this scaffold using the KINOMEscan methodology across a near comprehensive panel of 442 kinases [[18,27]].

[2] = target: T2, panel of 442 kinases (Homo sapiens, UniProt Q16832)
T2 construct: purchased KINOMEscan
T2 sequence (Q16832 22-855): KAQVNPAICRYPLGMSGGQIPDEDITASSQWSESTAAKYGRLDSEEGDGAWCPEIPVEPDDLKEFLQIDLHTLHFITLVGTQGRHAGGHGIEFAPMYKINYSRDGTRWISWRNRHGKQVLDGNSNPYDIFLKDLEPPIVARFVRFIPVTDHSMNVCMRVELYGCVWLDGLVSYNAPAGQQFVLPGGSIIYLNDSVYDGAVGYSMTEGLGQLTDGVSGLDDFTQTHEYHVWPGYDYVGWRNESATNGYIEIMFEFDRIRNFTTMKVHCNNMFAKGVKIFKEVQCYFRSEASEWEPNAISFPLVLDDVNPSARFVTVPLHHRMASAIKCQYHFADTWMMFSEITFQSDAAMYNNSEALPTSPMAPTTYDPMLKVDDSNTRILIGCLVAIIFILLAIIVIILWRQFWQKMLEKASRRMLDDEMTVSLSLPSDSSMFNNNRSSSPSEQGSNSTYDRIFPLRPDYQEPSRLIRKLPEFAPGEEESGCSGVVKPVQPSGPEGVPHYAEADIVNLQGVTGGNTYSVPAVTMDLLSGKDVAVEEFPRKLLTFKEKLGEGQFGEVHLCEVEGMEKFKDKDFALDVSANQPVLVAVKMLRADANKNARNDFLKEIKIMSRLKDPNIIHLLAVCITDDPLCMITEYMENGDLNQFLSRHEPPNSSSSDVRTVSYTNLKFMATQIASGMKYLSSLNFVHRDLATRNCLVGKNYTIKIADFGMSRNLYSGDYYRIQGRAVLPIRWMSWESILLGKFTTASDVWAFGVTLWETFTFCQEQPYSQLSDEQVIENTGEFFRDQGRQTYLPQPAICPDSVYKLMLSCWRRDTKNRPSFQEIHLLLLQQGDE
Text: as §1

[3] = target: T3, panel of 442 kinases (Homo sapiens, UniProt P42338)
T3 construct: purchased KINOMEscan
Text: as §1

T3 sequence (P42338 whole entry): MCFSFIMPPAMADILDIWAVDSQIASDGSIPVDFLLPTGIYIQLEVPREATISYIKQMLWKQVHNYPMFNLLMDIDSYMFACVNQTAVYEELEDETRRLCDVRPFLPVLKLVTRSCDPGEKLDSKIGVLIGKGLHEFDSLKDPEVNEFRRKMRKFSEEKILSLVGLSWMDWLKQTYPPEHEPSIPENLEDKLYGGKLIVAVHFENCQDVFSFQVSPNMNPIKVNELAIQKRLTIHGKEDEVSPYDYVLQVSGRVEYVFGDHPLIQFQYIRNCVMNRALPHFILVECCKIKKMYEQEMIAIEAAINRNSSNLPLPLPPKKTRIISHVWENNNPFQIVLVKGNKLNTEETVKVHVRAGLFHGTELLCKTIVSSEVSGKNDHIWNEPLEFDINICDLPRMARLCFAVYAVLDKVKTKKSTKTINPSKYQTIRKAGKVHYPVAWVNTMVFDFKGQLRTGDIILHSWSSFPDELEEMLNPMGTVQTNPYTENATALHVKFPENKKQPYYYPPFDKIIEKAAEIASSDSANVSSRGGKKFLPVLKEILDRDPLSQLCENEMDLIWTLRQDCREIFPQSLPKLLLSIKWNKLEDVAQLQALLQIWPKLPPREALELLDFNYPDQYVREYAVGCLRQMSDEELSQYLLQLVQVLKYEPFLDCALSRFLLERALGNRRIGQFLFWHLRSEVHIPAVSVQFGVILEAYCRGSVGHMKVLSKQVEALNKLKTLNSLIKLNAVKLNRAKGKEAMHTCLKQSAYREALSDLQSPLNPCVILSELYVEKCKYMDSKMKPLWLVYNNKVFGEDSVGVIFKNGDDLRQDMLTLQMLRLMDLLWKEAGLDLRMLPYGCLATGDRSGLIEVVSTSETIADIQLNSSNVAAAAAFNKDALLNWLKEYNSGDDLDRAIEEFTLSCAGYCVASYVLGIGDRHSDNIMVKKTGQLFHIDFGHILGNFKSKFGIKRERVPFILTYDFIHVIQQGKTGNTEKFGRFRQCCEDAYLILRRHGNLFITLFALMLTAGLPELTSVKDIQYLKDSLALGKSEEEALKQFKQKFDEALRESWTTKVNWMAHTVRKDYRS
T1 sequence (P07949 29-1114): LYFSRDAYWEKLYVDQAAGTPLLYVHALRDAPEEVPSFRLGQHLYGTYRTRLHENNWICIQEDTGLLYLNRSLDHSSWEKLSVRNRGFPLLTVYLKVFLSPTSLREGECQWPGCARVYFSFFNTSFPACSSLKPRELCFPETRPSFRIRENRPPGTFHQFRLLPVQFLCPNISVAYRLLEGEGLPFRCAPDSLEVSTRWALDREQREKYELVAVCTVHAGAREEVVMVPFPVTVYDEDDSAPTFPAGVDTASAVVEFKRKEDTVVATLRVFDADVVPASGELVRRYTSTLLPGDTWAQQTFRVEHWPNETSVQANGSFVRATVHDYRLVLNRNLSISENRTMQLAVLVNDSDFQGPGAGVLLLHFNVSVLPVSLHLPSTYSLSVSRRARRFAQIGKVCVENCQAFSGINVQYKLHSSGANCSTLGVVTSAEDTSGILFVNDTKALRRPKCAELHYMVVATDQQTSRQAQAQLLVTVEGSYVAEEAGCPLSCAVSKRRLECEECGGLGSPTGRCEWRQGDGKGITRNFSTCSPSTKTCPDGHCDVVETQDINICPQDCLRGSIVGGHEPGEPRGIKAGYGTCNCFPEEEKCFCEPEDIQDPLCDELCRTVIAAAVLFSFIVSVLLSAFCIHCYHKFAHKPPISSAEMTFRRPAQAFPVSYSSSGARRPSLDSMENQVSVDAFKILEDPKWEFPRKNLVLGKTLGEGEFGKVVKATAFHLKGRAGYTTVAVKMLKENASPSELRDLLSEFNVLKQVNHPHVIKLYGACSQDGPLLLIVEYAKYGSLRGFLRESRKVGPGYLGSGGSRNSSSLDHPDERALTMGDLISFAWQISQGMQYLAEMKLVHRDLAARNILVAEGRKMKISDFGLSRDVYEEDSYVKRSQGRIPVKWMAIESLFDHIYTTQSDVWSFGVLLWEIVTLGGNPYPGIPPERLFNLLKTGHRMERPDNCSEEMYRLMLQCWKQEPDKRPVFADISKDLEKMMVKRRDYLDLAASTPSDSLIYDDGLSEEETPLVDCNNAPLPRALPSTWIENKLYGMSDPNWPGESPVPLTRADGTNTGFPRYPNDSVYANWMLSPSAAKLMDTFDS

Structure (SMILES)	KINOMEscan: RET [1]	KINOMEscan: DDR2 [2]	KINOMEscan: PIK3CB [3]
COc1cc(C(=O)N2CCC(N3CCN(C)CC3)CC2)ccc1Nc1ncc2c(n1)N(C)c1ccccc1C(=O)N2C [15 (LRRK2-IN-1)]	100	100	96
CCOc1cc(C(=O)N2CCC(N3CCN(C)CC3)CC2)ccc1Nc1ncc2c(n1)N(C1CCCC1)c1ccccc1C(=O)N2C [Compound 26]	100	81	100
COc1cc(C(=O)N2CCC(N3CCN(C)CC3)CC2)ccc1Nc1ncc2c(n1)N1CCc3cccc(c31)C(=O)N2C [Compound 24]			71
COc1cc(C(=O)N2CCC(N3CCN(C)CC3)CC2)ccc1Nc1ncc2c(n1)N(C1CCCC1)c1ccccc1C(=O)N2C [Compound 25, 11-cyclopentyl-2-((2-methoxy-4-(4-(4-methylpiperazin-1-yl)piperidine-1-carbonyl)phenyl)amino)-5-methyl-5H-benzo[e]pyrimido[5,4-b][1,4]diazepin-6(11H)-one]	100	96	87
